Here are results for two compounds from ChEMBL document CHEMBL3596165, “Synthesis, structure elucidation and identification of antiproliferative activities of a novel class of thiophene bioisosteres bearing the privileged 7,8-dihydroimidazo[2,1-c][1,2,4]triazin-4(6H)-one scaffold” (Bioorg Med Chem, 2015).

Activity calls are given as the source filed them. The rule behind the calls is not given here.

For data set [1], the system named is T47D. Nature of the data set: Antiproliferative activity against human T47D cells at 50 ug/ml after 48 hrs by BrdUrd incorporation assay. The format is functional. The note with it: read-out: GI.
The test system of data set [2] is T47D. Nature of the data set: Antiproliferative activity against human T47D cells after 48 hrs by BrdUrd incorporation assay. The data set is classed as functional, cell-based.
The subject of data set [3] is HeLa. Nature of the data set: Induction of apoptosis in human HeLa cells at 10 ug/ml after 72 hrs by fluorescence microscopic analysis. The format is functional.
In data set [4] the test system is TOV112D. Nature of the data set: Antiproliferative activity against human TOV112D cells at 50 ug/ml after 24 hrs by BrdUrd incorporation assay. The format is functional. The note with it: read-out: GI.
For data set [5], the system named is Vero. Put plainly: Induction of necrosis in African green monkey Vero cells at 10 ug/ml after 72 hrs by fluorescence microscopic analysis. The data set is classed as functional, cell-based. The note with it: Chlorocebus sabaeus.
The test system of data set [6] is A549. Nature of the data set: Antiproliferative activity against human A549 cells at 50 ug/ml after 48 hrs by BrdUrd incorporation assay. The data set is classed as functional. The note with it: A549, 48 h, read-out: GI.
Data set [7] has as its system T47D. Put plainly: Antiproliferative activity against human T47D cells at 50 ug/ml after 72 hrs by BrdUrd incorporation assay. The data set is classed as functional. The note with it: read-out: GI.
Data set [8] deals with HeLa. Put plainly: Antiproliferative activity against human HeLa cells at 50 ug/ml after 72 hrs by BrdUrd incorporation assay. The format is functional. The note with it: read-out: GI.
Data set [9] has as its system HeLa. Put plainly: Antiproliferative activity against human HeLa cells after 72 hrs by BrdUrd incorporation assay. The data set is classed as functional, cell-based.
In data set [10] the test system is Vero. Put plainly: Antiproliferative activity against African green monkey Vero cells after 24 hrs by BrdUrd incorporation assay. The note with it: chlorocebus sabaeus. The data set is classed as cell-based.
In data set [11] the test system is TOV112D. Nature of the data set: Antiproliferative activity against human TOV112D cells after 24 hrs by BrdUrd incorporation assay. The format is functional, cell-based.
In data set [12] the test system is A549. Put plainly: Antiproliferative activity against human A549 cells at 50 ug/ml after 24 hrs by BrdUrd incorporation assay. The format is functional. The note with it: A549, 24 h, read-out: GI.
Data set [13] in a line: Antiproliferative activity against African green monkey Vero cells at 50 ug/ml after 48 hrs by BrdUrd incorporation assay. The format is cell-based. The note with it: chlorocebus sabaeus, read-out: GI.
The test system of data set [14] is TOV112D. Put plainly: Antiproliferative activity against human TOV112D cells at 50 ug/ml after 48 hrs by BrdUrd incorporation assay. The data set is classed as functional. The note with it: read-out: GI.
Data set [15] relates to HeLa. Put plainly: Antiproliferative activity against human HeLa cells after 24 hrs by BrdUrd incorporation assay. The data set is classed as functional, cell-based.
Data set [16] concerns TOV112D. Put plainly: Antiproliferative activity against human TOV112D cells at 50 ug/ml after 72 hrs by BrdUrd incorporation assay. The data set is classed as functional. The note with it: read-out: GI.
Data set [17] relates to Vero. Put plainly: Antiproliferative activity against African green monkey Vero cells at 50 ug/ml after 24 hrs by BrdUrd incorporation assay. The format is cell-based. The note with it: chlorocebus sabaeus.
For data set [18], the system named is A549. Put plainly: Antiproliferative activity against human A549 cells at 50 ug/ml after 72 hrs by BrdUrd incorporation assay. The data set is classed as functional. The note with it: A549, 72 h, read-out: GI.
In data set [19] the test system is T47D. Put plainly: Induction of necrosis in human T47D cells at 10 ug/ml after 72 hrs by fluorescence microscopic analysis. The data set is classed as functional, cell-based.
The subject of data set [20] is HeLa. Put plainly: Antiproliferative activity against human HeLa cells at 50 ug/ml after 48 hrs by BrdUrd incorporation assay. The format is functional. The note with it: read-out: GI.
Data set [21] relates to A549. Put plainly: Antiproliferative activity against human A549 cells after 24 hrs by BrdUrd incorporation assay. The format is functional, cell-based. The note with it: A549, 24 h.
Data set [22] concerns Vero. Nature of the data set: Antiproliferative activity against African green monkey Vero cells after 48 hrs by BrdUrd incorporation assay. The data set is classed as cell-based. The note with it: Chlorocebus sabaeus.
Data set [23] deals with A549. Put plainly: Antiproliferative activity against human A549 cells after 48 hrs by BrdUrd incorporation assay. The note with it: A549, 48 h. The format is functional, cell-based.
The test system of data set [24] is A549. Put plainly: Antiproliferative activity against human A549 cells after 72 hrs by BrdUrd incorporation assay. The format is functional, cell-based. The note with it: A549, 72 h.
Data set [25] has as its system TOV112D. Put plainly: Antiproliferative activity against human TOV112D cells after 72 hrs by BrdUrd incorporation assay. The format is functional, cell-based.
Data set [26] is described as follows: Antiproliferative activity against African green monkey Vero cells at 50 ug/ml after 72 hrs by BrdUrd incorporation assay. The format is cell-based. The note with it: chlorocebus sabaeus, read-out: GI.
Data set [27] has as its system TOV112D. Put plainly: Antiproliferative activity against human TOV112D cells after 48 hrs by BrdUrd incorporation assay. The format is functional, cell-based.
Data set [28] relates to T47D. Nature of the data set: Antiproliferative activity against human T47D cells after 24 hrs by BrdUrd incorporation assay. The format is functional, cell-based.
For data set [29], the system named is HeLa. Put plainly: Antiproliferative activity against human HeLa cells at 50 ug/ml after 24 hrs by BrdUrd incorporation assay. The note with it: read-out: GI. The format is functional.
Data set [30] relates to Vero. Put plainly: Induction of apoptosis in African green monkey Vero cells at 10 ug/ml after 72 hrs by fluorescence microscopic analysis. The data set is classed as functional, cell-based. The note with it: Chlorocebus sabaeus.
For data set [31], the system named is T47D. Nature of the data set: Antiproliferative activity against human T47D cells after 72 hrs by BrdUrd incorporation assay. The data set is classed as functional, cell-based.
For data set [32], the system named is HeLa. Put plainly: Induction of necrosis in human HeLa cells at 10 ug/ml after 72 hrs by fluorescence microscopic analysis. The data set is classed as functional.
The test system of data set [33] is T47D. Put plainly: Induction of apoptosis in human T47D cells at 10 ug/ml after 72 hrs by fluorescence microscopic analysis. The data set is classed as functional, cell-based.
The test system of data set [34] is HeLa. Nature of the data set: Antiproliferative activity against human HeLa cells after 48 hrs by BrdUrd incorporation assay. The format is functional, cell-based.
For data set [35], the system named is T47D. Nature of the data set: Antiproliferative activity against human T47D cells at 50 ug/ml after 24 hrs by BrdUrd incorporation assay. The data set is classed as functional. The note with it: read-out: GI.
Data set [36] has as its system Vero. Nature of the data set: Antiproliferative activity against African green monkey Vero cells after 72 hrs by BrdUrd incorporation assay. The data set is classed as cell-based. The note with it: Chlorocebus sabaeus.
The nature of data set [37]: Antiproliferative activity against African green monkey Vero cells at 100 ug/ml after 72 hrs by BrdUrd incorporation assay. The data set is classed as cell-based. The note with it: chlorocebus sabaeus, read-out: GI.
The subject of data set [38] is T47D. Put plainly: Antiproliferative activity against human T47D cells at 100 ug/ml after 24 hrs by BrdUrd incorporation assay. The note with it: read-out: GI. The format is functional.
Data set [39] relates to A549. Nature of the data set: Antiproliferative activity against human A549 cells at 100 ug/ml after 72 hrs by BrdUrd incorporation assay. The format is functional. The note with it: A549, 72 h, read-out: GI.
For data set [40], the system named is HeLa. Put plainly: Antiproliferative activity against human HeLa cells at 100 ug/ml after 48 hrs by BrdUrd incorporation assay. The format is functional. The note with it: read-out: GI.
Data set [41] deals with Vero. Nature of the data set: Antiproliferative activity against African green monkey Vero cells at 100 ug/ml after 24 hrs by BrdUrd incorporation assay. The note with it: chlorocebus sabaeus. The format is cell-based.
Data set [42] has as its system A549. Nature of the data set: Antiproliferative activity against human A549 cells at 100 ug/ml after 48 hrs by BrdUrd incorporation assay. The data set is classed as functional. The note with it: A549, 48 h, read-out: GI.
Data set [43] relates to HeLa. Put plainly: Antiproliferative activity against human HeLa cells at 100 ug/ml after 24 hrs by BrdUrd incorporation assay. The note with it: read-out: GI. The format is functional.
Data set [44] deals with T47D. Put plainly: Antiproliferative activity against human T47D cells at 100 ug/ml after 72 hrs by BrdUrd incorporation assay. The format is functional. The note with it: read-out: GI.
Data set [45] deals with HeLa. Put plainly: Antiproliferative activity against human HeLa cells at 100 ug/ml after 72 hrs by BrdUrd incorporation assay. The data set is classed as functional. The note with it: read-out: GI.
Data set [46] in a line: Antiproliferative activity against African green monkey Vero cells at 100 ug/ml after 48 hrs by BrdUrd incorporation assay. The format is cell-based. The note with it: chlorocebus sabaeus, read-out: GI.
Data set [47] deals with A549. Put plainly: Antiproliferative activity against human A549 cells at 100 ug/ml after 24 hrs by BrdUrd incorporation assay. The format is functional. The note with it: A549, 24 h, read-out: GI.
In data set [48] the test system is T47D. Nature of the data set: Antiproliferative activity against human T47D cells at 100 ug/ml after 48 hrs by BrdUrd incorporation assay. The format is functional. The note with it: read-out: GI.

Consider `O=c1c(-c2cccs2)nnc2n1CCN2c1ccc(Cl)c(Cl)c1`, for which the inhibition of growth at 50 µg/mL in the data set on T47D [1] is 100%; with TOV112D [4] it was 90%; with A549 [6], 100%; in the data set with T47D [7] it was 100%; in the data set on HeLa [8], 100%; in the data set with A549 [12], 90%. Further, the inhibition of growth at 50 µg/mL in the data set with TOV112D [14] is 100%; with TOV112D [16] it was 100%; in the data set with A549 [18], 100%; in the data set on HeLa [20], 90%; with HeLa [29], 50%; with T47D [35] it was 90%. Also, the IC50 was 70 µM with T47D [2]; 70 µM in the data set with HeLa [9]; above 140 µM in the data set with Vero [10]; 80 µM in the data set with TOV112D [11]; 140 µM with HeLa [15]; 80 µM in the data set with A549 [21]. In addition, the IC50 in the data set on Vero [22] was 140 µM; with A549 [23], 70 µM; in the data set on A549 [24] it was 70 µM; in the data set with TOV112D [25], 70 µM; with TOV112D [27], 70 µM; in the data set with T47D [28], 80 µM. Further, the IC50 in the data set with T47D [31] amounted to 70 µM; in the data set on HeLa [34] it was 80 µM; with Vero [36], 80 µM. The Activity with HeLa [3] is given as 5%; in the data set on HeLa [32], 95%. The outcome in the data set with Vero [5], in the data set with T47D [19], with Vero [30] and in the data set on T47D [33] was Active. Further, the inhibition at 48 h, 50 ug/ml in data set [13] came to 50%. The “growth inhibition (GI)” value in the data set on Vero [17] is 25%. The inhibition at 72 h, 50 ug/ml in data set [26] was determined as 90%.
For the compound `Nc1nc2[nH]cc(CCc3ccc(C(=O)N[C@@H](CCC(=O)O)C(=O)O)cc3)c2c(=O)[nH]1` [PEMETREXED], in data set [37], the inhibition at 72 h, 100 ug/ml came out at 20%. Besides, the inhibition of growth at 100 µg/mL came out at 10% in the data set with T47D [38]; 50% with A549 [39]; 10% in the data set with HeLa [40]; 30% in the data set on A549 [42]; 5% in the data set with HeLa [43]; 30% with T47D [44]. The values for the inhibition of growth at 100 µg/mL in the data set on HeLa [45], in the data set with A549 [47] and in the data set on T47D [48] were 20%, 10% and 20%, respectively. In the data set with Vero [41], the “growth inhibition (GI)” value is 5%. Also, in data set [46], the inhibition at 48 h, 100 ug/ml was determined as 10%.

As usually defined, the IC50 is the point on the concentration scale where inhibition reaches its midpoint.
